Where two headings read alike, the source gives them in different places.
How the values were obtained:
T. cruzi epimastigotes = assay: Trypanocidal activity against T. cruzi epimastigotes (XTT); type: cell-based, Trypanosoma cruzi; conditions: for IC50: Trypanosoma cruzi, read-out: T. cruzi IC50; for selectivity ratio at 72 h: mouse (RAW 264.7 cells) / Trypanosoma cruzi (epimastigotes), RAW cell IC50 / T. cruzi IC50, read-out: T. cruzi SI (selectivity index, cytotoxicity/anti-protozoal activity)
Description: Trypanocidal activity was determined according to Muelas-Serrano with some modifications. […] Benznidazol (3.1–100 μg/mL) was used as the control drug. Assays were performed in triplicates.

[1] = tested on: L. brasiliensis promastigotes; assay: Leishmanicidal activity against L. brasiliensis promastigotes (XTT); conditions: for IC50: 72 h, read-out: L. brasiliensis IC50
Description: (§1) Evaluations against Leishmania parasites: Promastigotes of Leishmania-Leishmania: L. amazonensis, Clone 1, NHOM-BR-76-LTB-012 (Lma, donated by the Paul Sabatier Université, France) and Leishmania-Viannia: L. braziliensis M2904 C192 RJA (M2904, donated by Dr. Jorge Arévalo from Universidad Peruana Cayetano Heredia, Peru). All strains were cultured in Schneider’s insect medium, (pH 6.2) supplemented with 10% FBS and incubated at 26 °C. Medium changes were made every 72 h to maintain a viable parasitic population. Leishmanicidal activity was determined according to Williams with some modifications. Samples were dissolved in DMSO (maximum final concentration 1%) at 10 mg/mL. Promastigotes in logarithmic phase of growth, at the concentration 3 × 10^6 parasites/mL, were distributed (100 μL/well) in 96-well flat bottom microtiter plates. Samples with different concentrations (3.1–100 μg/mL) were added (100 μL). […] Assays were performed in triplicates. The microwell plates were incubated for 72 h at 26 °C. After incubation, a solution of XTT (1 mg/mL) in PBS (pH 7.0 at 37 °C) with PMS (0.06 mg/mL) was added (50 μL/well), and incubated for 3 h at 26 °C. The optical density of each well was measured and the IC50 values calculated.

[2] = tested on: L. amazoniensis promastigotes; assay: Leishmanicidal activity against L. amazoniensis promastigotes (XTT); conditions: for IC50: Leishmania amazonensis, 72 h, read-out: L. amazoniensis IC50
Description: as §1, with “All” for “Evaluations against Leishmania parasites: Promastigotes of Leishmania-Leishmania: L. amazonensis, Clone 1, NHOM-BR-76-LTB-012 (Lma, donated by the Paul Sabatier Université, France) and Leishmania-Viannia: L. braziliensis M2904 C192 RJA (M2904, donated by Dr. Jorge Arévalo from Universidad Peruana Cayetano Heredia, Peru). All”

[3] = Cytotoxicity in RAW cells (Resazurin); type: cell-based, murine; conditions: mouse
Description: Evaluations against RAW cells: The Raw 264.7 murine macrophage cell line was purchased from the American Type Culture Collection (ATCC-TIB71). The cells were maintained in DMEM-HG medium supplemented with 10% fetal bovine serum, 100 U/mL of penicillin and 100 μg/mL of streptomycin, and sodium bicarbonate (2.2 g/L) in humidified atmosphere at 37 °C with 5% CO2. Samples were prepared as described above and added (in 100 μL DMSO) at different concentrations (6.2–200 μg/mL). Medium blank, control drugs and cell growth controls were included to evaluate cell viability. The plates were incubated for 72 h at 37 °C with 5% CO2. After incubation for the indicated time, the cells were washed, after which 10 μL of Resazurin reagent (2.0 mM) was added. They were further incubated at 37 °C for 3 h in a humidified incubator. The IC50 values were assessed using a fluorometric reader (540 nm excitation, 590 nm emission) and the Gen5 software. All assays were performed in triplicate.

[4] = epimastigotes, 72 h at 26 °C, XTT, triplicates
[5] = L. brasiliensis SI (selectivity index, cytotoxicity/anti-protozoal activity), RAW cell IC50 / L. brasiliensis IC50
[6] = L. amazoniensis SI (selectivity index, cytotoxicity/anti-protozoal activity), RAW cell IC50 / L. amazoniensis IC50
[7] = RAW cells, 72 h at 37 °C, Resazurin, triplicate, read-out: Cytotoxicity IC50

Compound	IC50 (T. cruzi epimastigotes; [4]) [µM]	selectivity ratio at 72 h (T. cruzi epimastigotes)	selectivity ratio at 72 h [1]	IC50 [1] [µM]	selectivity ratio at 72 h [2]	IC50 [2] [µM]	IC50 at 72 h [3] [µM]	selectivity ratio at 72 h [1, 5]	selectivity ratio at 72 h [2, 6]	IC50 at 72 h [3, 7] [µM]	IC50 (T. cruzi epimastigotes; 72 h) [µM]	IC50 at 72 h ([3]; RAW 264.7 macrophage cells (ATCC-TIB71), RAW cells, 72 h at 37 °C, Resazurin, triplicate, read-out: Cytotoxicity IC50) [µM]
COc1ccc2c(c1)-c1cc(C)ccc1C(C)(C)O2 [3a, 2-Methoxy-6,6,9-trimethyl-6H-benzo[c]chromene]	51.1 ± 17.7	2	1.4	69.6 ± 5.9	1.2	85.3 ± 5.9	99.5 ± 22					
COc1ccc2c(c1)-c1cc(CCl)ccc1C(C)(C)O2 [3b, 9-(chloromethyl)-2-methoxy-6,6-dimethyl-6H-benzo[c]chromene]	38.1 ± 0.4	1.6		17.1 ± 0.1		35 ± 2.8	59.2 ± 14.5	3.5	1.7			
COCc1ccc2c(c1)-c1cc(OC)ccc1OC2(C)C [3c, 2-Methoxy-9-(methoxymethyl)-6,6-dimethyl-6H-benzo[c]chromene]	24.6 ± 3.5	1.3		49.2 ± 15.8		56.3 ± 12	33.1 ± 2.1	0.7	0.6			
COc1ccc2c(c1)-c1cc(COC(C)C)ccc1C(C)(C)O2 [3d, 9-(Isopropoxymethyl)-2-methoxy-6,6-dimethyl-6H-benzo[c]chromene]	12.9 ± 0.3	2.5	0.9	35.2 ± 3.2	0.9	35.2 ± 3.8				32 ± 0.3		
COc1ccc2c(c1)-c1cc(CNC(C)C)ccc1C(C)(C)O2 [3f, N-((2-Methoxy-6,6-dimethyl-6H-benzo[c]chromen-9-yl)methyl)propan-2-amine]	70.6 ± 9.6	0.4		83.5 ± 32.1		67.8 ± 13.8	29.5 ± 9.6	0.4	0.4			
COc1ccc2c(c1)-c1cc(CNCC(C)C)ccc1C(C)(C)O2 [3g, N-((2-Methoxy-6,6-dimethyl-6H-benzo[c]chromen-9-yl)methyl)-2-methylpropan-1-amine]	15.4 ± 4	0.8		25.8 ± 6.2		15.4 ± 3.1	12.3 ± 1.2	0.5	0.8			
COc1ccc2c(c1)-c1cc(CNCCC(C)C)ccc1C(C)(C)O2 [3h, N-((2-Methoxy-6,6-dimethyl-6H-benzo[c]chromen-9-yl)methyl)-3-methylbutan-1-amine]	5.9 ± 1.2	1.3		15.9 ± 0.9		17.7 ± 7.4	7.4 ± 2.4	0.5	0.4			
COc1ccc2c(c1)-c1cc(COC(C)=O)ccc1C(C)(C)O2 [4a, (2-Methoxy-6,6-dimethyl-6H-benzo[c]chromen-9-yl)methyl acetate]	14.4 ± 1.6	2.3		28.8 ± 0.3		26.9 ± 0.6	32.7 ± 22.4	1.1	1.2			
COc1ccc2c(c1)-c1cc(COC(=O)C(C)C)ccc1C(C)(C)O2 [4b, (2-Methoxy-6,6-dimethyl-6H-benzo[c]chromen-9-yl)methyl isobutyrate]	8.8 ± 0.9	3		17.6 ± 0.9		26.7 ± 2.4	26.4 ± 5.9	1.5	1			
COc1ccc2c(c1)-c1cc(COC(=O)C(C)(C)C)ccc1C(C)(C)O2 [4c, (2-Methoxy-6,6-dimethyl-6H-benzo[c]chromen-9-yl)methyl pivalate]	6.4 ± 0.1	3	1.1	17.4 ± 1.7	1	20.5 ± 0.6				19.8 ± 0.9		
CCCC(=O)OCc1ccc2c(c1)-c1cc(OC)ccc1OC2(C)C [4d, (2-Methoxy-6,6-dimethyl-6H-benzo[c]chromen-9-yl)methyl butyrate]	16.2 ± 3.2	6.4		57.8 ± 2.4		79.3 ± 9.4	103 ± 35.3	1.8	1.3			
COc1ccc2c(c1)-c1cc(COC(=O)CC(C)C)ccc1C(C)(C)O2 [4e, (2-Methoxy-6,6-dimethyl-6H-benzo[c]chromen-9-yl)methyl 3-methylbutanoate]	4.2 ± 1.1	6.7		13.1 ± 0.4		14.5 ± 0.1	28.2 ± 9	2.2	1.9			
COc1ccc2c(c1)-c1cc(COC(=O)CC(C)(C)C)ccc1C(C)(C)O2 [4f, (2-Methoxy-6,6-dimethyl-6H-benzo[c]chromen-9-yl)methyl 3,3-dimethylbutanoate]	5.7 ± 0.3	3.3		20 ± 4.2		19.5 ± 0.8	19 ± 3	1	1			
CCCCCC(=O)OCc1ccc2c(c1)-c1cc(OC)ccc1OC2(C)C [4g, (2-Methoxy-6,6-dimethyl-6H-benzo[c]chromen-9-yl)methyl hexanoate]	22.8 ± 5.7	2.3	1.9	27.7 ± 0.3	1.2	42.3 ± 8.7				52.1 ± 8.1		
COc1ccc2c(c1)-c1cc(COC(=O)CCC3CCCC3)ccc1C(C)(C)O2 [4h, (2-Methoxy-6,6-dimethyl-6H-benzo[c]chromen-9-yl)methyl 3-cyclopentylpropanoate]	8.4 ± 3.3	6.1	0.4	122 ± 27.9	1.6	30.9 ± 3	50.7 ± 17.7					
COc1ccc2c(c1)-c1cc(COC(=O)C3CCCCC3)ccc1C(C)(C)O2 [4i, (2-Methoxy-6,6-dimethyl-6H-benzo[c]chromen-9-yl)methyl cyclohexanecarboxylate]	13.1 ± 0.5	3.9	2.1	24.3 ± 0.8	1.3	40.5 ± 8.7	51.3 ± 8.2					
C=CC(=O)OCc1ccc2c(c1)-c1cc(OC)ccc1OC2(C)C [4j, (2-Methoxy-6,6-dimethyl-6H-benzo[c]chromen-9-yl)methyl acrylate]	7.4 ± 0.9	> 5		5.7 ± 0.5		6.9 ± 1.7	40.1 ± 12.6	> 5	> 5			
O=C(Cn1ccnc1[N+](=O)[O-])NCc1ccccc1 [Benznidazole, reference compound]		3.9								74.7 ± 9.1	19.2 ± 7.7	
CCCCCCCCCCCCCCCCOP(=O)([O-])OCC[N+](C)(C)C [Miltefosine, reference compound]				13 ± 1.2								76.6 ± 3.2

From paper PMC7412453, “SAR:s for the Antiparasitic Plant Metabolite Pulchrol. 1. The Benzyl Alcohol Functionality” (Molecules, 2020)
